What was measured:
barnyardgrass [1] = experiment: Test B flooded paddy test; format: in vivo, Echinochloa crus-galli; conditions: Flood, 250 g ai/ha; 0 to 100 scale where 0 is no effect and 100 is complete control
Procedure, shortened: (§1)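 Flooded to 3 cm at the 2-leaf stage, pots received compound through the paddy water and were kept at that depth under greenhouse conditions. After 13–15 days, effect was rated by eye relative to controls, 0 = none and 100 = complete control.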

Italian ryegrass [2] = experiment: Test A postemergence; format: in vivo, Lolium multiflorum
Procedure, shortened: (§2)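 Pre- and postemergence greenhouse screen. Soil: loam + sand. Spray carrier: solvent mixture, non-phytotoxic, with surfactant. Post timing at 1–2 leaves, height 2–10 cm. Readout: visual injury on a 0–100 scale roughly 10 days after application, untreated plants as reference.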

galium = experiment: Test A postemergence; format: in vivo, Galium aparine
Procedure, shortened: as §2

Italian ryegrass [3] = experiment: Test A preemergence; format: in vivo, Lolium multiflorum
Procedure, shortened: as §2

pigweed [4] = experiment: Test A postemergence; format: in vivo, Amaranthus retroflexus
Procedure, shortened: as §2

kochia [5] = experiment: Test A postemergence; format: in vivo, Kochia scoparia
Procedure, shortened: as §2

blackgrass = experiment: Test A postemergence; format: in vivo, Alopecurus myosuroides
Procedure, shortened: as §2

kochia [6] = experiment: Test A preemergence; format: in vivo, Kochia scoparia
Procedure, shortened: as §2

ragweed [7] = experiment: Test A postemergence; format: in vivo, Ambrosia elatior
Procedure, shortened: as §2

barnyardgrass [8] = experiment: Test A postemergence; format: in vivo, Echinochloa crus-galli
Procedure, shortened: as §2

ragweed [9] = experiment: Test A preemergence; format: in vivo, Ambrosia elatior
Procedure, shortened: as §2

Heteranthera limosa = experiment: Test B flooded paddy test; format: in vivo; conditions: Flood, 250 g ai/ha; 0 to 100 scale where 0 is no effect and 100 is complete control
Procedure, shortened: as §1

giant foxtail [10] = experiment: Test A postemergence; format: in vivo, Setaria faberii
Procedure, shortened: as §2

rice = experiment: Test B flooded paddy test; format: in vivo, Oryza sativa; conditions: Flood, 250 g ai/ha; 0 to 100 scale where 0 is no effect and 100 is complete control
Procedure, shortened: as §1

barnyardgrass [11] = experiment: Test A preemergence; format: in vivo, Echinochloa crus-galli
Procedure, shortened: as §2

wheat = experiment: Test A postemergence; format: in vivo, Triticum aestivum
Procedure, shortened: as §2

sedge, umbrella = experiment: Test B flooded paddy test; format: in vivo, Cyperus difformis; conditions: Flood, 250 g ai/ha; 0 to 100 scale where 0 is no effect and 100 is complete control
Procedure, shortened: as §1

pigweed [12] = experiment: Test A preemergence; format: in vivo, Amaranthus retroflexus
Procedure, shortened: as §2

giant foxtail [13] = experiment: Test A preemergence; format: in vivo, Setaria faberii
Procedure, shortened: as §2

corn = experiment: Test A postemergence; format: in vivo, Zea mays
Procedure, shortened: as §2

[14] = 31 g ai/ha, 0 to 100 scale, 0 no effect, 100 complete control
[15] = 125 g ai/ha, 0 to 100 scale, 0 no effect, 100 complete control
[16] = 31 g ai/ha, 0 to 100 scale where 0 is no effect and 100 is complete control, visual, approximately 10 days
[17] = 125 g ai/ha, 0 to 100 scale where 0 is no effect and 100 is complete control
[18] = 500 g ai/ha, 0 to 100 scale where 0 is no effect and 100 is complete control

Cc1cc(C)n(-c2ccccc2Oc2ncc(Cl)cn2)n1 [Compound 264]
0: Plant response rating, Barnyardgrass (barnyardgrass [1]) | Plant response rating, Ryegrass, Italian (Italian ryegrass [2]; [14]) | Plant response rating, Ryegrass, Italian (Italian ryegrass [2]; [15]) | Plant response rating, Galium (galium; [14]) | Plant response rating, Galium (galium; [15]) | Plant response rating, Ryegrass, Italian (Italian ryegrass [3]; [16]) | Ryegrass, Italian plant response rating (0 to 100 scale) (Italian ryegrass [3]; 125 g ai/ha) | Plant response rating, Pigweed (pigweed [4]; [14]) | Plant response rating, Pigweed (pigweed [4]; [15]) | Plant response rating, Kochia (kochia [5]; [14]) | Plant response rating, Kochia (kochia [5]; [15]) | Plant response rating, Blackgrass (blackgrass; [14]) | Plant response rating, Blackgrass (blackgrass; [15]) | Plant response rating, Kochia (kochia [6]; [16]) | Kochia plant response rating (0 to 100 scale) (kochia [6]; 125 g ai/ha) | Plant response rating, Ragweed (ragweed [7]; [14]) | Plant response rating, Ragweed (ragweed [7]; [15]) | Plant response rating, Barnyardgrass (barnyardgrass [8]; [14]) | Plant response rating, Barnyardgrass (barnyardgrass [8]; [15]) | Plant response rating, Ragweed (ragweed [9]; [16]) | Ragweed plant response rating (0 to 100 scale) (ragweed [9]; 125 g ai/ha) | Plant response rating, Ducksalad (Heteranthera limosa) | Plant response rating, Foxtail, Giant (giant foxtail [10]; [14]) | Plant response rating, Foxtail, Giant (giant foxtail [10]; [15]) | Plant response rating, Rice (rice) | Plant response rating, Barnyardgrass (barnyardgrass [11]; [16]) | Barnyardgrass plant response rating (0 to 100 scale, 0 is no effect, 100 is complete control) (barnyardgrass [11]; 125 g ai/ha) | Plant response rating, Wheat (wheat; [14]) | Plant response rating, Wheat (wheat; [15]) | Plant response rating, Sedge, Umbrella (sedge, umbrella) | Plant response rating, Pigweed (pigweed [12]; [16]) | Pigweed plant response rating (0 to 100 scale) (pigweed [12]; 125 g ai/ha) | Plant response rating, Foxtail, Giant (giant foxtail [13]; [16]) | Foxtail, Giant plant response rating (0 to 100 scale) (giant foxtail [13]; 125 g ai/ha) | Plant response rating, Corn (corn; [14]) | Plant response rating, Corn (corn; [15])

N#Cc1cccc(Oc2ncc(Cl)cn2)c1-n1ccnc1 [Compound 261]
30: Plant response rating, Galium (galium; [14]) | Plant response rating, Pigweed (pigweed [4]; [14]) | Plant response rating, Ragweed (ragweed [7]; [15])
20: Plant response rating, Ragweed (ragweed [7]; [14])
60: Plant response rating, Pigweed (pigweed [4]; [15])
70: Plant response rating, Kochia (kochia [5]; [15])
50: Plant response rating, Galium (galium; [15]) | Plant response rating, Kochia (kochia [5]; [14])
0: Plant response rating, Barnyardgrass (barnyardgrass [1]) | Plant response rating, Ryegrass, Italian (Italian ryegrass [2]; [14]) | Plant response rating, Ryegrass, Italian (Italian ryegrass [2]; [15]) | Plant response rating, Ryegrass, Italian (Italian ryegrass [3]; [16]) | Ryegrass, Italian plant response rating (0 to 100 scale) (Italian ryegrass [3]; 125 g ai/ha) | Plant response rating, Blackgrass (blackgrass; [14]) | Plant response rating, Blackgrass (blackgrass; [15]) | Plant response rating, Kochia (kochia [6]; [16]) | Kochia plant response rating (0 to 100 scale) (kochia [6]; 125 g ai/ha) | Plant response rating, Barnyardgrass (barnyardgrass [8]; [14]) | Plant response rating, Barnyardgrass (barnyardgrass [8]; [15]) | Plant response rating, Ragweed (ragweed [9]; [16]) | Ragweed plant response rating (0 to 100 scale) (ragweed [9]; 125 g ai/ha) | Plant response rating, Ducksalad (Heteranthera limosa) | Plant response rating, Foxtail, Giant (giant foxtail [10]; [14]) | Plant response rating, Rice (rice) | Plant response rating, Barnyardgrass (barnyardgrass [11]; [16]) | Barnyardgrass plant response rating (0 to 100 scale, 0 is no effect, 100 is complete control) (barnyardgrass [11]; 125 g ai/ha) | Plant response rating, Wheat (wheat; [14]) | Plant response rating, Wheat (wheat; [15]) | Plant response rating, Sedge, Umbrella (sedge, umbrella) | Plant response rating, Pigweed (pigweed [12]; [16]) | Pigweed plant response rating (0 to 100 scale) (pigweed [12]; 125 g ai/ha) | Plant response rating, Foxtail, Giant (giant foxtail [13]; [16]) | Foxtail, Giant plant response rating (0 to 100 scale) (giant foxtail [13]; 125 g ai/ha) | Plant response rating, Corn (corn; [14]) | Plant response rating, Corn (corn; [15])
10: Plant response rating, Foxtail, Giant (giant foxtail [10]; [15])

CCCc1cnc(Oc2cccc(C#N)c2-n2cc(Br)cn2)nc1 [Compound 131]
0: Plant response rating, Barnyardgrass (barnyardgrass [1]) | Ryegrass, Italian plant response rating (Italian ryegrass [2]; [17]) | Plant response rating, Ryegrass, Italian (Italian ryegrass [2]; [18]) | Galium plant response rating (galium; [17]) | Plant response rating, Galium (galium; [18]) | Plant response rating, Ryegrass, Italian (Italian ryegrass [3]; [17]) | Ryegrass, Italian plant response rating (Italian ryegrass [3]; [18]) | Pigweed plant response rating (pigweed [4]; [17]) | Plant response rating, Pigweed (pigweed [4]; [18]) | Kochia plant response rating (kochia [5]; [17]) | Plant response rating, Kochia (kochia [5]; [18]) | Blackgrass plant response rating (blackgrass; [17]) | Plant response rating, Blackgrass (blackgrass; [18]) | Plant response rating, Kochia (kochia [6]; [17]) | Kochia plant response rating (kochia [6]; [18]) | Ragweed plant response rating (ragweed [7]; [17]) | Plant response rating, Ragweed (ragweed [7]; [18]) | Barnyardgrass plant response rating (barnyardgrass [8]; [17]) | Plant response rating, Barnyardgrass (barnyardgrass [8]; [18]) | Plant response rating, Ragweed (ragweed [9]; [17]) | Ragweed plant response rating (ragweed [9]; [18]) | Plant response rating, Ducksalad (Heteranthera limosa) | Foxtail, Giant plant response rating (giant foxtail [10]; [17]) | Plant response rating, Foxtail, Giant (giant foxtail [10]; [18]) | Plant response rating, Rice (rice) | Plant response rating, Barnyardgrass (barnyardgrass [11]; [17]) | Barnyardgrass plant response rating (barnyardgrass [11]; [18]) | Wheat plant response rating (wheat; [17]) | Plant response rating, Wheat (wheat; [18]) | Plant response rating, Sedge, Umbrella (sedge, umbrella) | Plant response rating, Pigweed (pigweed [12]; [17]) | Pigweed plant response rating (pigweed [12]; [18]) | Plant response rating, Foxtail, Giant (giant foxtail [13]; [17]) | Foxtail, Giant plant response rating (giant foxtail [13]; [18]) | Corn plant response rating (corn; [17]) | Plant response rating, Corn (corn; [18])

Fc1cnc(Oc2ccccc2-n2cc(OCC(F)(F)F)cn2)nc1 [Compound 241]
100: Kochia plant response rating (0 to 100 scale) (kochia [6]; 125 g ai/ha) | Pigweed plant response rating (0 to 100 scale) (pigweed [12]; 125 g ai/ha) | Foxtail, Giant plant response rating (0 to 100 scale) (giant foxtail [13]; 125 g ai/ha)
90: Plant response rating, Kochia (kochia [5]; [15])
0: Plant response rating, Barnyardgrass (barnyardgrass [1]) | Plant response rating, Ryegrass, Italian (Italian ryegrass [2]; [14]) | Plant response rating, Ryegrass, Italian (Italian ryegrass [2]; [15]) | Plant response rating, Ryegrass, Italian (Italian ryegrass [3]; [16]) | Ryegrass, Italian plant response rating (0 to 100 scale) (Italian ryegrass [3]; 125 g ai/ha) | Plant response rating, Blackgrass (blackgrass; [14]) | Plant response rating, Barnyardgrass (barnyardgrass [8]; [14]) | Plant response rating, Ragweed (ragweed [9]; [16]) | Plant response rating, Foxtail, Giant (giant foxtail [10]; [14]) | Plant response rating, Rice (rice) | Plant response rating, Wheat (wheat; [14]) | Plant response rating, Sedge, Umbrella (sedge, umbrella) | Plant response rating, Corn (corn; [14])
50: Plant response rating, Kochia (kochia [5]; [14]) | Plant response rating, Kochia (kochia [6]; [16]) | Plant response rating, Foxtail, Giant (giant foxtail [13]; [16])
20: Plant response rating, Blackgrass (blackgrass; [15]) | Plant response rating, Foxtail, Giant (giant foxtail [10]; [15])
10: Plant response rating, Ragweed (ragweed [7]; [14]) | Plant response rating, Barnyardgrass (barnyardgrass [8]; [15]) | Plant response rating, Barnyardgrass (barnyardgrass [11]; [16]) | Plant response rating, Wheat (wheat; [15]) | Plant response rating, Corn (corn; [15])
60: Plant response rating, Galium (galium; [15]) | Barnyardgrass plant response rating (0 to 100 scale, 0 is no effect, 100 is complete control) (barnyardgrass [11]; 125 g ai/ha)
40: Plant response rating, Galium (galium; [14]) | Plant response rating, Pigweed (pigweed [4]; [14]) | Ragweed plant response rating (0 to 100 scale) (ragweed [9]; 125 g ai/ha) | Plant response rating, Ducksalad (Heteranthera limosa)
80: Plant response rating, Pigweed (pigweed [4]; [15]) | Plant response rating, Pigweed (pigweed [12]; [16])
30: Plant response rating, Ragweed (ragweed [7]; [15])

From patent US9695155B2, “Herbicidal substituted pyrimidinyloxy benzene compounds” (E. I. DU PONT DE NEMOURS AND COMPANY, priority 2013, dated 2017)
